Test results reported in patent US20020094522A1, “Means and methods for monitoring non-nucleoside reverse transcriptase inhibitor antiretroviral therapy and guiding therapeutic decisions in the treatment of HIV/AIDS” (priority 2000, published 2002).

Experiments:
[1] = tested on: RTV-209 (patient sample 97-209); test: Phenotypic susceptibility assay, RTV-209; assay type: cell-based, HIV-1; details: RTV-209, patient-derived pool
Protocol: (§1) Transfections were performed using a calcium-phosphate precipitation procedure. […] Cell lysates were assayed for luciferase activity (FIG. 3).
(§2) The drug inhibition curves are shown in (FIG. 3).
A resistance test vector was constructed as described in Example 1 from a patient sample designated 97-209. This patient had been previously treated with AZT, ddI, d4T and 3TC (NRTIs), indinavir (a PRIs) and adefovir. Isolation of viral RNA and RT/PCR was used to generate a patient derived segment that comprised viral sequences coding for all of PR and aa 1-313 of RT. The PDS was inserted into an indicator gene viral vector to generate resistance test vector designated RTV-209. RTV-209 was then tested in a phenotypic assay to determine accurately and quantitatively the level of susceptibility to a panel of anti-retroviral drugs. […] An IC50 was determined for the resistance test vector pool for each drug tested. […]. The pattern of susceptibility to all of the drugs tested was examined and compared to known patterns of susceptibility.

[2] = tested on: RTV-1057 (patient sample 98-1057); test: Phenotypic susceptibility assay, RTV-1057; assay type: cell-based, HIV-1; details: RTV-1057, patient-derived pool
Protocol: as §1, §2
A resistance test vector was constructed as described in Example 1 from a patient sample designated 98-1057. This patient had been previously treated with ddI, d4T, AZT, and 3TC (NRTIs), saquinavir and indinavir (PRIs) and delavirdine (an NNRTI). Isolation of viral RNA and RT/PCR was used to generate a patient derived segment that comprised viral sequences coding for all of PR and aa 1-313 RT. The PDS was inserted into an indicator gene viral vector to generate resistance test vector designated RTV-1057. RTV-1057 was then tested in a phenotypic assay to determine accurately and quantitatively the level of susceptibility to a panel of anti-retroviral drugs. […] An IC50 was determined for the resistance test vector pool for each drug tested. The pattern of susceptibility to all of the drugs tested was examined and compared to known patterns of susceptibility.

[3] = tested on: RTV-1058 Clone 4 (K103N and Y188L); test: Phenotypic susceptibility assay, RTV-1058 clone 4; assay type: cell-based, HIV-1
Protocol: (§3) The resistance test vectors containing a functional luciferase gene cassette were constructed and host cells were transfected with the resistance test vector DNA. The resistant test vectors contained patient-derived reverse transcriptase and protease sequences that were either susceptible or resistant to the antiretroviral agents, such as nucleoside reverse transcriptase inhibitors, non-nucleoside reverse transcriptase inhibitors and protease inhibitors. […] The IC50 values were determined by plotting percent drug inhibition vs. log10 drug concentration.
(§4) Host cells were seeded in 10-cm-diameter dishes and were transfected several days after plating with resistance test vector plasmid DNA and the envelope expression vector. […] HIV capsid protein (p24) levels in the harvested cell culture media were determined by an EIA method as described by the manufacturer (SIAC; Frederick, Md.). […] The inhibitory effect of the drug was determined using the following equation: […]
(§5) A resistance test vector was constructed as described in Example 1 from a patient sample designated 98-1058. […] An IC50 was determined for the resistance test vector pool for each drug tested.

[4] = tested on: RTV-1058 Clone 10 (L100I, K103N and Y188L); test: Phenotypic susceptibility assay, RTV-1058 clone 10; assay type: cell-based, HIV-1
Protocol: as §3, §4, §5

[5] = tested on: RTV-302 (patient sample 97-302; K103N, P225H); test: Phenotypic susceptibility assay, RTV-302; assay type: cell-based, HIV-1; details: RTV-302, patient-derived
Protocol: as §1, §2
A resistance test vector was constructed as described in example 1 from a patient sample designated as 97-302. This patient had been treated with d4T, indinavir and DMP-266 for a period of approximately 10 months. Isolation of viral RNA and RT/PCR was used to generate a patient derived segment that comprised viral sequences coding for all of PR and aa 1-313 of RT. The patient derived segment was inserted into a indicator gene viral vector to generate a resistance test vector designated RTV-302. RTV-302 was tested using a phenotypic susceptibility assay to determine accurately and quantitatively the level of susceptibility to a panel of anti-retroviral drugs. […] An IC50 was determined for each drug tested. Susceptibility of the patient virus to each drug was examined and compared to known patterns of susceptibility.

[6] = tested on: patient 487 virus (RT M184V, K103N); test: Phenotypic susceptibility assay, patient 487; assay type: cell-based, HIV; details: patient 487, FIG. 4
Excerpt: as §3, with “inhibitors. The resistance test vector viral particles produced by transfecting the resistance test vector DNA into host cells, either in the presence or absence of protease inhibitors, were used to infect target host cells grown either in the absence of NRTI or NNRTI or in the presence of increasing concentrations of the drug.” for “inhibitors.”
as §4

[7] = tested on: patient 780 virus (RT K103N, P225H); test: Phenotypic susceptibility assay, patient 780; assay type: cell-based, HIV; details: patient 780, FIG. 8B
Excerpt: as §3, with “inhibitors. The resistance test vector viral particles produced by transfecting the resistance test vector DNA into host cells, either in the presence or absence of protease inhibitors, were used to infect target host cells grown either in the absence of NRTI or NNRTI or in the presence of increasing concentrations of the drug.” for “inhibitors.”
as §4

[8] = tested on: RTVs containing P236L plus K103N, Y181C or both (K103N+Y181C); test: Phenotypic susceptibility assay, P236L added to K103N, Y181C or both; assay type: cell-based, HIV-1; details: P236L with K103N
Protocol: as §1, §2
Resistance test vectors were constructed containing the P236L mutation alone and in combination with other known drug resistance mutations (K103N, Y181C) that are known to modulate the susceptibility of HIV-1 to NNRTIs. […] The P236L mutation was also introduced into a RTV containing mutations at K103N, Y181C or both (K103N+Y181C).

Row | Compound | fold decrease in susceptibility (IC50) [1] | fold decrease in susceptibility (IC50) [2] [fold] | fold loss of susceptibility (IC50) [3] | fold loss of susceptibility (IC50) [4] | change in susceptibility [5] | susceptibility/resistance profile [6] | susceptibility/resistance profile [7] | change in susceptibility compared to the corresponding RTV lacking P236L [8]
1 | Cc1ccnc2c1NC(=O)c1cccnc1N2C1CC1 [nevirapine] | greater than 800 fold | 610 | greater than 800 fold | greater than 800 fold | significant decrease in nevirapine susceptibility | increased resistance | reduced susceptibility | did not significantly alter nevirapine susceptibility
2 | CC(C)Nc1cccnc1N1CCN(C(=O)c2cc3cc(NS(C)(=O)=O)ccc3[nH]2)CC1 [delavirdine] | 75 fold | 35 | 85 fold | greater than 250 fold | modest decrease in delavirdine susceptibility | increased resistance | reduced susceptibility | less susceptible (more resistant) to delavirdine if the P236L mutation was present
